Source: patent US20200046800A1, “BIOCIDAL AGENT” ("VERTA RESEARCH-PRODUCTION COMPANY" LTD, priority 2017, published 2020)

Experiments:
[1] = tested on: type 2 herpes simplex virus, strain G (ATCC VR-734); assay: Lethal herpes infection in mice by vaginal infection, protective effect of gels; assay type: in vivo
Excerpt: Eight groups of animals, containing 15 subjects each, were formed to conduct the experiment.
Groups 1-6: infected with type 2 herpes simplex virus and administered gels I-VI (experimental groups 1-6).
Group 8: infected with type 2 herpes simplex virus and not administered any pharmaceutical preparations (virus control).
Type 2 herpes simplex virus, strain G (ATCC VR-734, USA), was used in the experiment. The virus was cultivated in the T98G cell culture (human brain glioblastoma), then adapted to mice by two consecutive intracerebral passages. To prepare the final infective material, the animals were intracerebrally infected with brain tissue homogenate from the second passage; on the 4th day post infection, the animals were euthanized, their brain was extracted, homogenized, used to infect Vero cells, and incubated for 48 hours at 37° C. under 5% CO2 using the culture fluid, in which the infectious titer of the virus was previously determined, as the infective material.
The murine vaginal epithelium was injured with a scarifier for vaginal smears, after which the animals were infected with 30 μl of the virus at a 10^6 TCID50 dose. The examined gels were administered to mice in […] per the following regimen: 0.05 ml once a day 1, 2, 3, 4, and 5 days post infection.
The animals were followed for 18 days; their mortality was recorded daily. Cessation of mortality was defined by the absence of mice with signs of herpetic vaginitis (vaginal discharge) and complications thereof (posterior limb paresis). Based on the mortality data for each group, the mortality rate (Mr, ratio of the fallen animals at the time of control to the total number of infected animals in the group), protective index (IP, ratio of the difference in the percentage of mortality in the control and experimental groups to the percentage of mortality in the control group), and average life span of the animals (ALS) per each day of the experiment were calculated.
The protective effect of the peptide-containing gels was assessed by the reduction in the specific mortality and increase in the life span of the animals compared to the control group that wasn't treated.

[2] = tested on: human herpes simplex virus type 2 (HPV-2); settings: male rabbits, local application; cited from earlier work
HPV-2 = settings: guinea pigs; cited from earlier work
[3] = guinea pigs, HPV-2; cited from earlier work
[4] = n = 15, vaginal HSV-2 10^6 TCID50, gel 0.05 ml once a day days 1-5, followed 18 days
[5] = n = 15, vaginal HSV-2, followed 18 days

Nc1nc2c(ncn2COCCO)c(=O)[nH]1 [Acyclovir]
Number of dead animals [1, 4]: 4
Number of survived animals [1, 4]: 11
ALS (average life span) [1, 5]: 13.9 24 hrs.
Mortality [1, 5]: 26.7%
Increase in ALS ([1]; versus virus control, n = 15): 2.6

NH2-His-Gly-Val-Ser-Gly-His-Gly-Gln-His-Gly-Val-His-Gly-COOH (H-HGVSGHGQHGVHG-OH) [Peptide 1]
Length of the primary genital herpes outbreak [2]: significantly shortened
Viral load on the body [2]: reduced
Disease duration (HPV-2): statistically significant reduction
Discharge of the virus from the lesions [3]: statistically significant reduction
